Patent US10940139B2, “Compounds that interact with the Ras superfamily for the treatment of cancers, inflammatory diseases, rasopathies, and fibrotic disease” (Shy Therapeutics LLC, priority 2017, dated 2021)

Assays:
[1] = tested on: TNFα production in RAW 264.7 macrophage cell line; experiment: Mouse TNF alpha quantification assay (LPS-stimulated macrophages, ELISA); assay type: cell-based; conditions: RAW264.7, RAW 264.7 murine leukemia virus transformed macrophage cell lines, LPS stimulation, read-out: TNF-α % Inhibition at 30 μM
[2] = tested on: IL6 production in RAW 264.7 macrophage cell line; experiment: Mouse IL6 quantification assay (LPS-stimulated macrophages, ELISA); assay type: cell-based; conditions: RAW264.7, RAW 264.7 murine leukemia virus transformed macrophage cell lines, LPS stimulation, read-out: IL-6 % Inhibition at 30 μM

Row | Structure (SMILES) | inhibition at 30 µM [1] | inhibition at 30 µM [2]
1 | COC(=O)C(C)CN(Cc1cc(Br)ccc1[N+](=O)[O-])C1CC1 (centres unmarked) [drawing 2063] | 0% | 26 to 50%
2 | CC(C1CC1)N(CC(F)(F)F)C(=O)Cc1ccc(-c2ccccc2)cc1 (centres unmarked) [drawing 2064] | 1 to 25% | 1 to 25%
3 | COC(=O)C(C)CN(Cc1ccccc1)c1nc(C(F)(F)F)ccc1C#N (centres unmarked) [drawing 2065] | 0% | 26 to 50%
4 | CCN(CC)S(=O)(=O)c1ccc(NCCOC)c(C(=O)NCCSCc2ccc(C)cc2)c1 [drawing 2066] | 26 to 50% | 26 to 50%
5 | CSc1nc(C2CC2)cc(C(=O)NCCc2ccc(S(=O)(=O)NC(=O)c3cc(C4CC4)nc(SC)c3C#N)cc2)c1C#N [drawing 2067] | 26 to 50% | 1 to 25%
6 | CC(C)C1=C(O)C2(CC2c2ccc(-c3ccccc3)cc2)C(C)CC1 (centres unmarked) [drawing 2068] | 1 to 25% | 0%
7 | Cc1cccc(C)c1OCCOC(=O)c1ccccc1SCCOc1c(C)cccc1C [drawing 2069] | 0% | 1 to 25%
8 | Oc1nc(-c2ccccn2)nc2c1CCCN2 [drawing 2070] | 1 to 25% | 26 to 50%
9 | O=C(COc1ccccc1)N1CCCc2c(O)nc(-c3ccccn3)nc21 [drawing 2071] | 1 to 25% | 76 to 100%
10 | COc1ccc(COCC(=O)N2CCCc3c(O)nc(-c4ccccn4)nc32)cc1 [drawing 2072] | 1 to 25% | 51 to 75%
11 | COc1ccc(CCC(=O)N2CCCc3c(O)nc(-c4ccccn4)nc32)cc1 [drawing 2073] | 26 to 50% | 76 to 100%
12 | CN(CC(=O)N1CCCc2c(O)nc(-c3ccccn3)nc21)S(=O)(=O)c1ccccc1 [drawing 2074] | 0% | 1 to 25%
13 | O=C(c1ccc2ccccc2n1)N1CCCc2c(O)nc(-c3ccccn3)nc21 [drawing 2075] | 1 to 25% | 76 to 100%
14 | O=C(c1ccn(-c2ccccc2)n1)N1CCCc2c(O)nc(-c3ccccn3)nc21 [drawing 2076] | 26 to 50% | 76 to 100%
15 | CS(=O)(=O)N1CCCc2cc(C(=O)N3CCCc4c(O)nc(-c5ccccn5)nc43)ccc21 [drawing 2077] | 1 to 25% | 76 to 100%
16 | O=C(c1ccc(=O)[nH]n1)N1CCCc2c(O)nc(-c3ccccn3)nc21 [drawing 2078] | 1 to 25% | 76 to 100%
17 | CS(=O)(=O)c1cccc(C(=O)N2CCCc3c(O)nc(-c4ccccn4)nc32)c1 [drawing 2079] | 0% | 51 to 75%
18 | COCCCC(=O)N1CCCc2c(O)nc(-c3ccccn3)nc21 [drawing 2080] | 1 to 25% | 76 to 100%
19 | O=C(c1cocn1)N1CCCc2c(O)nc(-c3ccccn3)nc21 [drawing 2081] | 1 to 25% | 1 to 25%
20 | CS(=O)(=O)CCCC(=O)N1CCCc2c(O)nc(-c3ccccn3)nc21 [drawing 2082] | 0% | 26 to 50%
21 | O=S(=O)(CCc1ccccc1)N1CCCc2c(O)nc(-c3ccccn3)nc21 [drawing 2083] | 0% | 26 to 50%
22 | O=S(=O)(c1ccccc1)N1CCCc2c(O)nc(-c3ccccn3)nc21 [drawing 2084] | 1 to 25% | 0%
23 | O=C(OCCc1ccccc1)N1CCCc2c(O)nc(-c3ccccn3)nc21 [drawing 2085] | 26 to 50% | 76 to 100%

Row | Structure (SMILES) | inhibition at 30 µM [1] | inhibition at 30 µM [2]
24 | O=C(CC(c1ccccc1)c1ccccc1)N1CCCc2c(O)nc(-c3ccccn3)nc21 [drawing 2086] | 0% | 26 to 50%
25 | O=C(c1ccccn1)N1CCCc2c(O)nc(-c3ccccn3)nc21 [drawing 2087] | 1 to 25% | 1 to 25%
26 | O=C(CCCc1cccnc1)N1CCCc2c(O)nc(-c3ccccn3)nc21 [drawing 2088] | 1 to 25% | 76 to 100%
27 | Nc1nc(O)c2scc(Br)c2n1 [drawing 2089] | 1 to 25% | 1 to 25%
28 | COCC1CCN(C(=O)c2csc3c(O)nc(N)nc23)CC1 [drawing 2090] | 1 to 25% | 1 to 25%
29 | CCOCCC1CCN(C(=O)c2csc3c(O)nc(N)nc23)CC1 [drawing 2091] | 1 to 25% | 0%
30 | COCCCC1CCN(C(=O)c2csc3c(O)nc(N)nc23)CC1 [drawing 2092] | 1 to 25% | 0%
31 | Nc1nc(O)c2scc(C(=O)N3CCC(N4CCOCC4)CC3)c2n1 [drawing 2093] | 1 to 25% | 0%
32 | Nc1nc(O)c2scc(C(=O)N3CCC(N4CCCC4=O)CC3)c2n1 [drawing 2094] | 0% | 1 to 25%
33 | CCOC(=O)NC1CCN(C(=O)c2csc3c(O)nc(N)nc23)CC1 [drawing 2095] | 1 to 25% | 0%
34 | Nc1nc(O)c2scc(C(=O)N(CCO)CCOCCO)c2n1 [drawing 2096] | 0% | 1 to 25%
35 | Nc1nc(O)c2scc(C(=O)NCCc3cccnc3)c2n1 [drawing 2098] | 1 to 25% | 1 to 25%
36 | COc1cc2c(cc1OC)CCN(C(=O)c1csc3c(O)nc(N)nc13)CC2 [drawing 2099] | 1 to 25% | 1 to 25%
37 | Oc1nc(-c2ccccn2)nc2c(Br)csc12 [drawing 2100] | 76 to 100% | 76 to 100%
38 | CC1CCN(C(=O)c2csc3c(O)nc(-c4ccccn4)nc23)CC1 [drawing 2101] | 0% | 26 to 50%
39 | COCC1CCN(C(=O)c2csc3c(O)nc(-c4ccccn4)nc23)CC1 [drawing 2102] | 1 to 25% | 76 to 100%
40 | CCOCCC1CCN(C(=O)c2csc3c(O)nc(-c4ccccn4)nc23)CC1 [drawing 2103] | 1 to 25% | 76 to 100%
41 | COCCCC1CCN(C(=O)c2csc3c(O)nc(-c4ccccn4)nc23)CC1 [drawing 2104] | 1 to 25% | 51 to 75%
42 | O=C(c1csc2c(O)nc(-c3ccccn3)nc12)N1CCC(N2CCOCC2)CC1 [drawing 2105] | 0% | 1 to 25%
43 | O=C(c1csc2c(O)nc(-c3ccccn3)nc12)N1CCC(N2CCCC2=O)CC1 [drawing 2106] | 26 to 50% | 1 to 25%
44 | O=C(c1csc2c(O)nc(-c3ccccn3)nc12)N1CCN(c2ccncc2)CC1 [drawing 2108] | 0% | 1 to 25%
45 | O=C(c1csc2c(O)nc(-c3ccccn3)nc12)N1CCC(c2cccnc2)CC1 [drawing 2109] | 1 to 25% | 76 to 100%
46 | CC1(O)CCN(C(=O)c2csc3c(O)nc(-c4ccccn4)nc23)CC1 [drawing 2110] | 0% | 51 to 75%

Row | Structure (SMILES) | inhibition at 30 µM [1] | inhibition at 30 µM [2]
47 | CC1(N)CCN(C(=O)c2csc3c(O)nc(-c4ccccn4)nc23)CC1 [drawing 2111] | 0% | 1 to 25%
48 | CCOC(=O)NC1CCN(C(=O)c2csc3c(O)nc(-c4ccccn4)nc23)CC1 [drawing 2112] | 0% | 51 to 75%
49 | COCCOCCN(C)C(=O)c1csc2c(O)nc(-c3ccccn3)nc12 [drawing 2113] | 0% | 26 to 50%
50 | CN(CCc1ccncc1)C(=O)c1csc2c(O)nc(-c3ccccn3)nc12 [drawing 2114] | 0% | 51 to 75%
51 | O=C(NCCc1cccnc1)c1csc2c(O)nc(-c3ccccn3)nc12 [drawing 2115] | 0% | 26 to 50%
52 | O=C(c1csc2c(O)nc(-c3ccccn3)nc12)N1CCc2ccccc2CC1 [drawing 2116] | 0% | 51 to 75%
53 | COc1cc2c(cc1OC)CCN(C(=O)c1csc3c(O)nc(-c4ccccn4)nc13)CC2 [drawing 2117] | 1 to 25% | 26 to 50%
54 | Nc1nc(O)c2scc(-c3ccccc3)c2n1 [drawing 2118] | 0% | 1 to 25%
55 | Nc1nc(O)c2scc(-c3ccccc3Cl)c2n1 [drawing 2119] | 0% | 26 to 50%
56 | Oc1nc(-c2ccccn2)nc2c(-c3ccccc3)csc12 [drawing 2120] | 51 to 75% | 76 to 100%
57 | Oc1nc(-c2ccccn2)nc2c(-c3ccccc3Cl)csc12 [drawing 2121] | 76 to 100% | 76 to 100%
58 | Oc1nc(-c2ccccn2)nc2[nH]cnc12 [drawing 2122] | 76 to 100% | 76 to 100%
59 | Oc1nc(-c2ccccn2)nc2c1ncn2-c1ccccc1 [drawing 2123] | 0% | 1 to 25%
60 | Oc1nc(-c2ccccn2)nc2c1ncn2-c1ccccn1 [drawing 2124] | 0% | 26 to 50%
61 | N#Cc1ccc(CC(=O)Nc2ccnc(-c3ccccn3)n2)cc1 [drawing 2125] | 1 to 25% | 1 to 25%
62 | Brc1csc2nc(-c3ccccn3)nc(N3CCOCC3)c12 [drawing 2126] | 0% | 51 to 75%
63 | c1ccc(-c2nc(N3CCOCC3)c3ccsc3n2)nc1 [drawing 2127] | 1 to 25% | 1 to 25%
64 | Oc1nc(-c2ccccn2)nc2scc(Br)c12 [drawing 2128] | 76 to 100% | 76 to 100%
65 | c1ccc(-c2nc(NCC3CCCO3)c3ccsc3n2)nc1 (centres unmarked) [drawing 2129] | 1 to 25% | 51 to 75%
66 | CCN(CC)CCC(C)Nc1nc(-c2ccccn2)nc2sccc12 (centres unmarked) [drawing 2130] | 0% | 1 to 25%
67 | O=C1CN(c2nc(-c3ccccn3)nc3scc(-c4ccccc4)c23)CCN1CCO [drawing 2131] | 1 to 25% | 1 to 25%
